These results are taken from publication PMC5109486, “Computational Drug Target Screening through Protein Interaction Profiles” (Scientific Reports, 2016).

For experiment [1], the target named is T1, hCOX-1 (Homo sapiens, UniProt P23219).
T1 construct: using arachidonic acid as substrate for hCOX-1 from human platelet microsomes; from tissue; host or cells: microsomes of human platelets isolated from buffy coats
Kind of experiment: hCOX-1 activity, TMPD oxidation, human platelet microsomes, arachidonic acid substrate. The settings on record: for inhibition at 25 µM: read-out: % enzymatic inhibition of hCOX-1 at 25 μM, compounds precipitated at higher concentrations. In kind it is biochemical. The method, then: Human platelets were isolated by centrifugation from buffy coats obtained from the Centro de Transfusion de Galicia (Santiago de Compostela, Spain) and prepared as described.
The upper layer obtained in this centrifugation, containing platelet rich plasma, was gently removed and centrifuged at 850 g for 20 min at 4 °C in a centrifuge (J2-MI, Beckman Instruments, Inc., Palo Alto, California, USA). The platelet pellet was recovered, resuspended with washing buffer, and centrifuged again at 850 g for 20 min at 4 °C. To prepare human platelet microsomes, the resultant platelet pellet of the above centrifugation was resuspended in 7 mL of sodium phosphate buffer (10 mM, pH 7.4), sonicated at 50 W for 50 s (5 pulses of 10 s), and centrifuged at 850 g for 20 min at 4 °C in a refrigerated centrifuge. The pellet was discarded and the supernatant was subsequently centrifuged at 10 000 g for 10 min at 4 °C in the same centrifuge. The pellet obtained in this centrifugation was discarded and the supernatant was finally centrifuged at 100 000 g for 1 h at 4 °C in an ultracentrifuge (Beckman Instruments, Inc., Palo Alto, California, USA).
The biological evaluation of the test drugs on hCOX-1 activity (bisdioxygenase and peroxidase reactions) was investigated by measuring their effects on the oxidation of N, N, N’, N’-tetramethyl-p-phenylenediamine (TMPD) to N, N, N’, N’-tetramethyl-p-phenylene-diimine, using arachidonic acid as substrate for hCOX-1 from human platelet microsomes (obtained as described in the above paragraph). The formation of N, N, N’, N’-tetramethyl-p-phenylenediimine (a coloured compound) from N, N, N’, N’-tetramethyl-p-phenylenediamine catalyzed by COX can be detected spectrophotometrically at 600 nm. In this study, hCOX activity was evaluated using a spectrophotometric method. Briefly, 0.1 mL of Tris–HCl buffer (100 mM, pH 8) containing […], […], various concentrations of the test drugs, and appropriate amounts of hCOX-1 (0.08 A600 U/min) were incubated for short periods of time (3–5 min) to avoid a notable loss of COX activity at 37 °C in a flat-bottom 96-well microtest plate (BD Biosciences, Franklin Lakes, NJ, USA) placed in the dark multimode microplate reader chamber. After this incubation period, the reaction was started by adding (final concentration) […] and the formation of N, N,N’,N’-tetramethyl-p-phenylenediimine from TMPD, i.e., the increase in absorbance at 600 nm was measured at 37 °C in a multi-mode microplate reader (Fluostar Optima, BMG Labtech GmbH, Offenburg, Germany) for 25 s, aperiod in which the absorbance increased linearly from the beginning. The specific absorbance (used to obtain the final results) was calculated after subtraction of the background absorbance generated in wells containing a blank solution, i.e., all components except the COX isoform, which were replaced by a Tris–HCl buffer solution.
Control experiments were carried out simultaneously by replacing the test drugs (new compounds and reference inhibitors) with appropriate dilutions of the vehicles. In addition, the possible capacity of the above test drugs to modify the absorbance of the reaction mixture due to non-enzymatic inhibition (e.g., for directly reacting with TMPD) was determined by adding these drugs to solutions containing only TMPD in a Tris–HCl buffer solution.

Experiment [2] addresses T2, hMAO-B (Homo sapiens, UniProt P27338).
T2 construct: purchased Sigma-Aldrich; host or cells: insect cells (BTI-TN-5B1-4) infected with recombinant baculovirus; microsomal preparation
T2 sequence (P27338 1-520): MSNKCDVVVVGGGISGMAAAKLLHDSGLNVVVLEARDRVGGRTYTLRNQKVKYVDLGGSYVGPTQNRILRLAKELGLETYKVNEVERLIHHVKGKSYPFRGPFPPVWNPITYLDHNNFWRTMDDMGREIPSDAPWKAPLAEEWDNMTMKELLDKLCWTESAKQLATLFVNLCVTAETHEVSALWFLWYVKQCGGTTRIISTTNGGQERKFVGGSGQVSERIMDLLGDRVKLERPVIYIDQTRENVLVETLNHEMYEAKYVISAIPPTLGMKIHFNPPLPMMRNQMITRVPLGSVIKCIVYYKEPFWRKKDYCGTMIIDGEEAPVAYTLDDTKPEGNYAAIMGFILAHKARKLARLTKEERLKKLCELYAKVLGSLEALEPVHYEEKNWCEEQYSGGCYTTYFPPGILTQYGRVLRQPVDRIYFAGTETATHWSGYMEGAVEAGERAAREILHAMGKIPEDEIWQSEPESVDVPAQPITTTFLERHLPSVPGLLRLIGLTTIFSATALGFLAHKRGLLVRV
Kind of experiment: hMAO-B enzymatic inhibition, Amplex Red MAO assay (H2O2 from p-tyramine). It counts as biochemical. From the text:
(§1) The biological evaluation on hMAO activity was investigated by measuring effects on the production of hydrogen peroxide (H2O2) from p-tyramine, using the Amplex® Red MAO assay kit and microsomal isoforms prepared from insect cells (BTI-TN-5B1-4) infected with recombinant baculovirus containing cDNA inserts for hMAO-A and hMAO-B. The production of H2O2 catalysed by the MAO isoforms was detected using 10-acetyl-3,7-dihydroxyphenoxazine (Amplex® Red reagent), a non fluorescent and highly sensitive probe that reacts with H2O2 in the presence of horseradish peroxidase to produce a fluorescent product, resorufin.
The selected compounds were dissolved in DMSO (Sigma-Aldrich, Alcobendas, Madrid, Spain) to prepare 10 mM stock solutions, which were kept for storage at −20 °C. Percentage of DMSO used in the experiments was never higher than 1%. Human recombinant MAO isoforms (native enzymes), used in the experiments, were purchased from Sigma-Aldrich (Alcobendas, Madrid, Spain). Test compounds were acquired from Sigma-Aldrich and Vitro S.A. (Madrid, Spain).
After this incubation period, the reaction was started by adding (final concentrations) 200 μM Amplex® Red reagent, 1 U/mL horseradish peroxidase and 1 mMp-tyramine. […] Control experiments were carried out simultaneously by replacing the test drugs (new compounds and reference inhibitor) with appropriate dilutions of the vehicles. In addition, the possible capacity of the above test drugs to modify the fluorescence generated in the reaction mixture due to non-enzymatic inhibition (e.g., for directly reacting with Amplex® Red reagent) was determined by adding these drugs to solutions containing only the Amplex® Red reagent in a sodium phosphate buffer. To determine the kinetic parameters of hMAO (Km and Vmax), the corresponding enzymatic activity was evaluated (under the experimental conditions described above) in the presence of a number (a wide range) of p-tyramine concentrations.
The specific fluorescence emission (used to obtain the final results) was calculated after subtraction of the background activity, which was determined from wells containing all components except the hMAO, which were replaced by a sodium phosphate buffer solution.

Experiment [3] concerns the target T3, hMAO-A (Homo sapiens, UniProt P21397).
T3 construct: purchased Sigma-Aldrich; host or cells: insect cells (BTI-TN-5B1-4) infected with recombinant baculovirus; microsomal preparation
T3 sequence (P21397 1-527): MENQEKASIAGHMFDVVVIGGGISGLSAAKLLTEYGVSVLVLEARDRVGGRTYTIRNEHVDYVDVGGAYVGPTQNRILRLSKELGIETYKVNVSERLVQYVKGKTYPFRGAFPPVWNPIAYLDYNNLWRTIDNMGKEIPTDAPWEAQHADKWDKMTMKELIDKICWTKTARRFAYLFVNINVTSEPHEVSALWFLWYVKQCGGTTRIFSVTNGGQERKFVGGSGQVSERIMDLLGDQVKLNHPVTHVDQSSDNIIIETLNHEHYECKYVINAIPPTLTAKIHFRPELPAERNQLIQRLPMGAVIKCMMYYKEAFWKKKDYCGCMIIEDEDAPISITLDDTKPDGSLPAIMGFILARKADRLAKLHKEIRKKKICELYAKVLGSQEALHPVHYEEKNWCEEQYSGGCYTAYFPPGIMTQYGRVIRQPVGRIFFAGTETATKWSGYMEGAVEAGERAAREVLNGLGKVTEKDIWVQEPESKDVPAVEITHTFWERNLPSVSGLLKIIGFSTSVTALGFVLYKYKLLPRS
Kind of experiment: hMAO-A enzymatic inhibition, Amplex Red MAO assay (H2O2 from p-tyramine). In kind it is biochemical.
Description: as §1, with “resorufin. […]” for “resorufin.”
After this incubation period, the reaction was started by adding (final concentrations) 200 μM Amplex® Red reagent, 1 U/mL horseradish peroxidase and 1 mMp-tyramine. […] In addition, the possible capacity of the above test drugs to modify the fluorescence generated in the reaction mixture due to non-enzymatic inhibition (e.g., for directly reacting with Amplex® Red reagent) was determined by adding these drugs to solutions containing only the Amplex® Red reagent in a sodium phosphate buffer. To determine the kinetic parameters of hMAO (Km and Vmax), the corresponding enzymatic activity was evaluated (under the experimental conditions described above) in the presence of a number (a wide range) of p-tyramine concentrations. […]

Experiment [4] has as its system hMAO-B. Set-up: method as in PMID 19948168, PMID 14965331. To be noted: cited from earlier work.
Where [5] appears, read: Table 2, mean ± S.E.M., n = 3, control assays, read-out: IC50 hCOX-1.
Where [6] appears, read: Table 3, mean ± S.E.M., n = 3, rational assays selected by the modeling, read-out: IC50 hCOX-1.
Setting [7] is: Table 2, mean ± S.E.M., n = 3, rational assays selected by the modeling, read-out: IC50 hMAO-B.
[8] abbreviates: highest concentration tested 100 μM, read-out: IC50 hMAO-B (rounded).
The mark [9] stands for this setting: Table 3, mean ± S.E.M., n = 3, control assays, read-out: IC50 hMAO-B.
Setting [10] is: highest concentration tested 100 μM, read-out: IC50 hCOX-1 (rounded).

Like-named read-outs stand apart in the source and are kept apart here. A value given as a limit tells only on which side of the number the result lay.

T1 sequence (P23219 24-599): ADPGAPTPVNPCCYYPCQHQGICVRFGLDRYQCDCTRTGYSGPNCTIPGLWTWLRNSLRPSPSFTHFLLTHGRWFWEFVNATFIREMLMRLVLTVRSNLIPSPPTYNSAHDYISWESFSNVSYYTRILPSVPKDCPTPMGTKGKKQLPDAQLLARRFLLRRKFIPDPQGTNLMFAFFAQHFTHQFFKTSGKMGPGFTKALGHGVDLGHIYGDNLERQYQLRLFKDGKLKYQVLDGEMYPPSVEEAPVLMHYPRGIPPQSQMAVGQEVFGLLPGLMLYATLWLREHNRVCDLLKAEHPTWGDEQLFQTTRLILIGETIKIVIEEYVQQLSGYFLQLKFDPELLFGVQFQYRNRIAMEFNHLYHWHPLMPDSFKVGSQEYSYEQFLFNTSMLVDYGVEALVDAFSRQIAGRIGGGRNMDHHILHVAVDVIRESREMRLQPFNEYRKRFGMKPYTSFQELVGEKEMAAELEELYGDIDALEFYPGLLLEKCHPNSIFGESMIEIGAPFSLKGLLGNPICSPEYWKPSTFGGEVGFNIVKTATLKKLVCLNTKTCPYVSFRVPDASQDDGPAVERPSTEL

`COc1ccc(-c2nc(C(=O)N3CCN(C)CC3)sc2-c2ccc(OC)cc2)cc1` [FR122047]: the half-inhibitory concentration (IC50) in experiment [1] (setting [5]) and in experiment [1] (setting [6]) was 0.094 ± 0.006 µM throughout.

Consider `COc1ccc2nc(NC(=O)Nc3ccccc3)sc2c1` [Frentizole], for which the IC50 in experiment [2] (setting [7]) was more than 100 µM; in experiment [2] (setting [8]), more than 100 µM; in experiment [3] (Table 2, mean ± S.E.M., n = 3, control assays, read-out: IC50 hMAO-A) it was more than 100 µM; in experiment [1] (setting [5]), more than 100 µM.

For `Cc1cccc(-c2n[nH]cc2-c2ccc3ncccc3n2)n1` [GW786460X], the IC50 in experiment [2] (setting [9]), in experiment [1] (setting [6]) and in experiment [1] (setting [10]) was more than 100 µM in each case.

As to `O=Nc1c(-c2c(O)[nH]c3ccccc23)[nH]c2ccccc12` [Indirubin-3′-monoxime, indirubin-3′-monoxime], the 50% inhibitory concentration (IC50) in experiment [2] (setting [9]) was more than 100 µM. Besides, the inhibition at 25 µM in experiment [1] is 28%.

Turning to `CS(=O)(=O)CCNCc1ccc(-c2ccc3ncnc(Nc4ccc(OCc5cccc(F)c5)c(Cl)c4)c3c2)o1` [Lapatinib, lapatinib], in experiment [2] (setting [9]), the IC50 is more than 100 µM. Moreover, the inhibition at 25 µM in experiment [1] turned out to be 19.5%.

Turning to `COc1cc(/C=C/C(=O)N2CCC=CC2=O)cc(OC)c1OC` [Piperlongumine, piperlongumine], the IC50 is 65.1 ± 2.99 µM in experiment [2] (setting [7]), 65 µM in experiment [2] (setting [8]), more than 100 µM in experiment [3] and more than 100 µM in experiment [1].

Turning to `O=C1NC(=O)C(c2c[nH]c3ccccc23)=C1c1c[nH]c2ccccc12` [RO-316233], the half-inhibitory concentration (IC50) in experiment [2] (setting [9]) was more than 100 µM; in experiment [1] (setting [6]) it was 25.4 ± 3.8 µM; in experiment [1] (setting [10]), 25 µM.

In the case of `Oc1ccc(-c2nc(-c3ccncc3)c(-c3ccc(F)cc3)[nH]2)cc1` [SB-202190], the figures for the IC50 in experiment [2] (setting [9]), in experiment [1] (setting [6]) and in experiment [1] (setting [10]) were more than 100 µM, 23.6 ± 3.53 µM and 24 µM, respectively.

With `NS(=O)(=O)Cc1noc2ccccc12` [zonisamide], the IC50 in experiment [4] (read-out: IC50 of zonisamide (MAO-B)) is approximately 25 µM. In experiment [4] (read-out: Ki of zonisamide (MAO-B)), the inhibition constant (Ki) is 3.1 µM.
